Source: US10633383B2, “Compounds for the treatment, alleviation or prevention of disorders associated with Tau aggregates” (AC Immune SA, priority 2018, dated 2020)

How the values were obtained:
[1] = system: rTg4510 mice; test: Histology for neuroinflammation markers (Iba1, CD68) in rTg4510 mice; format: in vivo, mouse
From the text: In Vivo Efficacy of the Compounds of the Present Invention In Vivo Study Design for the Testing of Example 12 and Example 45
Double transgenic rTg4510 mice express the full-length human Tau carrying the P301L mutation (Tau4R0N-P301L) under the control of the tet-inducible CaMKII promoter (Ramsden et al., J. Neurosci., 2005⋅25(46):10637-10647). Single transgenic mice expressing only the tetracycline-controlled transactivator (tTA) were used as genotype controls. The study comprised 4 treatment groups (n=15 female for tTa group and n=11 female mice/group for the treatment) with the following group distribution (see Table 9). Compounds or vehicle control were administered once daily or bi-daily by gavage for 1 month starting at the age of 5 months. All mice received 200 ppm doxycycline in chow for 3 weeks plus a loading dose in drinking water for the first two days at 1.5 mg/mL in 4% sucrose. […]
After perfusion, brains were then removed and hemi-sagitally hemisected. […] A systematic random set of sections from seven sagittal levels per animal was used to quantify the Iba1 and CD68 immunoreactivity while 1 section/animal from the medio-lateral level 4 were used to assess Tau misfolding (MC1 monoclonal antibody). […] Sections were imaged using a digital slide scanner (Panoramic 250 Flash, 3D Histech Ltd.) and quantified using the image visualization software Visiopharm. […]

[2] = system: human neuroblastoma cell line overexpressing the full-length form of human Tau carrying the P301L mutation; test: Reduction of intracellular Tau aggregation (AlphaLISA); format: cell-based; conditions: compound at 5 μM, 24 h, aggregated Tau normalized to total Tau, relative to DMSO-treated cells
Experimental: Reduction of Intracellular Tau Aggregation
A human neuroblastoma cell line overexpressing the full-length form of human Tau carrying the P301L mutation was cultured in complete medium [DMEM-F12 4.5 g/L Glutamax (Invitrogen), 15% FBS (Biochrom), 1% Peni/Strep (Invitrogen) supplemented with 2.5 μg/ml of G418 (Sigma-Aldrich) selection antibiotic]. The day before the experiment 5×10^5 cells/well were plated in a 6 well plate in 3 mL of complete medium. The next day, cells were incubated with DMSO or a compound of the present invention at a 5 μM for additional 24 h at 37° C. After incubation, cells were trypsinized, resuspended in 100 μl of homogenization buffer [25 mM Tris-HCl pH 7.4, 150 mM NaCl, 1 mM EDTA, 1 mM EGTA containing phosphatase inhibitors (30 mM NaF, 0.2 mM Na3VO4, 1 nM Okadaic acid, 1 mM PMSF, 5 mM Na4P2O7) and protease inhibitor cocktail (Complete™, Roche)], and then physically lysed with three rapid cycles of freezing and thawing. Samples were then directly tested in the AlphaLISA assay. Phosphorylated, aggregated, and total Tau were quantified by AlphaLisa using the following antibody pairs: • HT7-Acceptor beads+biotin (BT)-Tau13-Donor beads: Total Tau • HT7-Acceptor beads+biotin (BT)-HT7-Donor beads: Aggregated human Tau
The Tau13 (Abcam) was biotinylated using EZ-Link® NHS-PEO Solid Phase biotinylation kit (Thermo Scientific), while the HT7-biotin was from a commercial source (Thermo Scientific).
For each antibody pairs the concentration of acceptor beads and biotinylated antibodies was optimized. All samples were first tested in a dilution series in PBS in order to identify the linear range and optimal dilution for each sample and assay. For the final protocol, the following reagents were added in a 384-well white OptiPlate (PerkinElmer): • 5 μL of test diluted sample • 20 μL of the mixture biotin-mAb acceptor beads at the following final concentrations: • HT7-BT at 1.25 nM in combination with HT7-Acc beads at 10 μg/ml • Tau13-BT at 5 nM in combination with HT7-Acc beads at 2.5 μg/ml
After incubation of this mixture at room temperature for 1 h, 25 μL of Streptavidin Donor beads (Perkin Elmer) at 25 μg/mL were added in the dark. Plates were analyzed after 30 min incubation using the EnSpire Alpha instrument and EnSpire Workstation version 3.00. Data for aggregated Tau were normalized to total Tau and then expressed as percentage of the DMSO-treated cells.

## Fc1ccc2[nH]c3c(c2c1)CN(c1ccc2nc(N4CCOCC4)oc2c1)CC3 [Example 12]
[1]; 30 mg/kg bi-daily by gavage for 1 month (FIG. 3A)
  microgliosis measured as Iba1 immunoreactive area: decreased microgliosis
[1]; 30 mg/kg bi-daily by gavage for 1 month (FIG. 3B)
  activated phagocytic microglial cells positive for CD68: decreased highy activated phagocytic migroglial cells
[2]
  inhibition at 5 µM: 25 to 50%
